The values below come from patent publication US7629382B2, “Use of tellurium containing compounds as nerve protecting agents” (BioMAS Ltd., priority 2003, dated 2009).

The subject of data set [1] is PC12 cells expressing a point mutation of Cys118 of P21ras. The data set can be described thus: Neuronal differentiation of PC12 cells expressing Cys118 point mutation of p21ras. The data set is classed as cell-based.
For data set [2] the following is noted: rats; intravenous and intramuscular administration; cited from earlier work.
For data set [3], the target named is recombinant p21 ras (Homo sapiens, UniProt P01112). The data set can be described thus: Activation of recombinant p21ras by GDP/GTP exchange. The data set is classed as biochemical. The note with it: incubated 10 minutes. As for the experimental part:
AS101 (ammonium trichloro(dioxoethylene-O,O′)tellurate) was incubated with recombinant p21^ras for 10 minutes;
(§1) The effect of AS101 on signaling pathways that are controlled by Ras superfamily GTPases was screened by parallel analysis of the activation of the Ras family GTPases and their effectors (FIG. 1). The primary methods used for studying activation of different Ras superfamily GTPases were: (a) pull down of activated Ras superfamily GTPases from cell lysates, by binding of the specific recombinant purified effector GTPase binding domains to the activated GTP bound form. Subsequent to the pull down of the activated GTPases, the proteins were detected and quantified by western blotting; (b) activation of GTPases effectors such as Raf or RAC, by reporter gene assays; and (c) direct immunoprecipitation kinase assays (FIG. 2).
P21ras was cleaved by cyanogen bromide. This process yielded three fragments, each containing one cysteine residue: fragment 1 containing Cys51 (Mr 7,203); fragment 2 containing Cys60 (Mr 4,540) and fragment 3 containing Cys118 (Mr 6223). To confirm that Cys118 is the molecular target of AS101, a form of p21ras was generated identical to the wild type enzyme except that Cys118 is changed by a Ser residue (referred to as p21rasC118S). […] The stimulation by AS101 of nucleotide exchange on GDP-preloaded p21rasC118S in vitro was determined.

The subject of data set [4] is c-raf-1. The data set can be described thus: Activation of p21ras downstream effector c-raf-1. The data set is classed as cell-based. The note with it: cells incubated with AS101 for 15 minutes.
Description: as §1

Data set [5] relates to PC12 cells. Description: Detection of apoptosis in PC12 cells (NGF withdrawal). The data set is classed as cell-based. As for the experimental part:
(§2) To assess the neuroprotective effects of AS101, PC12 cells were maintained in Dulbecco's modified Eagle's medium supplemented with 8% heat inactivated horse serum, 8% heat inactivated fetal bovine serum, glutamine (5 mM) and 50 μg/ml gentamycin at 37° C.
The percentage of cells undergoing apoptosis was quantitatively determined using an Apoptosis Detection kit, on the basis of their ability to bind annexin V and exclude iodide, and also by an in situ cell detection kit incorporating HTC labeling and TUNEL.

Data set [6] has as its system PC12 cells. Description: Cell cycle distribution of PC12 cells (propidium iodide flow cytometry). The data set is classed as cell-based. The procedure: as §2
Cell cycle distribution studies were performed as previously described. Cells were trypsinyzed and suspended for 10 minutes at room temperature at 1.106/ml buffer containing lmg/ml RNAse, 1% NP-40, 10 μg/ml propidium iodide and 0.1% sodium citrate. Propidium iodide fluorescence was measured using a FACStar plus flow cytometer equipped with an air-cooled argon laser delivering 15 mW of light at […]. The red fluorescence from 1.104 cells from each sample was collected through a 610 nm bandpass filter.

The test system of data set [7] is PC12 cells expressing the dominant negative form (N17) of ras. The data set can be described thus: Neuronal differentiation of PC12 cells expressing dominant negative ras. The data set is classed as cell-based. The procedure: as §2
The ras Asn-17 gene was then cloned into a mammalian expression vector. Transfection of PC12 cells with the plasmid DNA was performed with the calcium phosphate precipitation technique as described previously.

Data set [8] relates to Erk. The data set can be described thus: Kinase assay of immunoprecipitated Erk with myelin basic protein as substrate. The data set is classed as cell-based. The settings on record: Jurkat T cells or NIH3T3 cells. The procedure: NIH3T3 cells were incubated with AS101 for 10 minutes with or without famesyl transferase inhibitor.
Endogenous JNK and erk were immunoprecipitated from cell lysates with specific antibodies and their activities measured by using p^32 ATP and glutathione s-transferase (GST) e-jun or myelin basic protein (MPB) respectively, as the substrate. Samples were run on SDS-polyacrylamide gel electrophoresis gels and subjected to Phosphorlmager analysis.
as §1

Data set [9] concerns PC12 cells. The data set can be described thus: Neuronal differentiation of PC12 cells. The data set is classed as cell-based. The procedure:
as §2

Data set [10] deals with p21waf. Description: p21waf protein expression in PC12 cells (Western blotting). The data set is classed as cell-based. The note with it: for effect of pretreatment on p21waf protein expression induced by AS101: PC12 cells pretreated before AS101. As for the experimental part: PC12 cells were washed in serum-free medium, resuspended to 1-5×10^6cells/ml. After 24 hours of incubation at 37° C. in culture, the cells were supplemented with 3 ml of medium (RPMI 1640 containing 10% FCS, 2% glutamine and 1 mg/ml G418 (Life Technologies, Inc.). After another 24 hours, cells were resuspended and maintained in the selection medium. After 3-4 weeks in selective medium, transfected cells were analyzed for via Western blotting. Results are expressed as percent p21 as compared to the negative (no drug) control.
PC12 cell extracts (20 μg/lane of protein) boiled under reducing conditions, were subjected to electrophoresis on 7.5 and 12.5% polyacrylamide gels and electro-transferred to nitrocellulose membranes. The membrane was blocked for one hour with 10% powdered milk in 0.2% Tween 20, Tris-buffered saline, and then incubated with the appropriate specific detecting antibodies. Immunoreactive proteins were detected with horseradish peroxidase-conjugated secondary antibodies (Amersham, Arlington Heights, Ill.) and a chemiluminescence reagent. For immunoprecipitation studies, immune complexes were precipitated with Protein A-Sepharose (Pharmacia) and, following electrophoresis, were blotted with anti-phosphoserine or anti-phosphotyrosine antibodies.

The test system of data set [11] is spinal cord injury. Description: Rat spinal cord injury model (weight-drop contusion). The data set is classed as in vivo. As for the experimental part: Twenty rats were divided into 4 treatment groups (control, AS101 15; 20; 30 μg). Experimental spinal cord injury (SCI) was induced via weight-drop contusion models that result in significant locomotor deficits, including lack of coordination and trunk stability. AS101 was applied topically to the damaged area and rats were treated for 21 days with AS101 administrated i.v. At the end of the first week following SCI, and on days 14 and 21, recovery was determined using Basso, Beattie and Bresnahan (BBB) locomotor scale score.

Values joined by “and” are separate entries in the source; they are usually repeats but may differ in a detail not shown here. Equal entries are not always repeated.

recombinant p21 ras, sequence (P01112 whole entry, species assumed): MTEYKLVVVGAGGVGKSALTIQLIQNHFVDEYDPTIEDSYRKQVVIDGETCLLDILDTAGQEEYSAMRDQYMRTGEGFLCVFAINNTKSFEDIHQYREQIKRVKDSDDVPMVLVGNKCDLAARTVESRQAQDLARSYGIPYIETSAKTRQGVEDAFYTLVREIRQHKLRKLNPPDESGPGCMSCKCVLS

As for `Cl[TeH]1(Cl)(Cl)OCCO1` [AS101, ammonium trichloro(dioxyethylene-O,O′)tellurate], the cellular differentiation result in [1] is “did not result in cellular differentiation”. In data set [2], the “LD50 relative to immunologically effective dose” value is listed as 500-1000 folds. Further, in data set [3], the “binding to and activation of p21 ras via GDP/GTP exchange” value was “directly binds to recombinant p21 ras and activates it via GDP/GTP exchange”. Besides, the “activation of c-raf-1” value in data set [4] was “could activate”. The Apoptotic in data set [5] (AS101 0.1 μg/ml) turned out to be 8.8%; in data set [5] (AS101 0.5 μg/ml), 5.3%; in data set [5] (AS101 1 μg/ml) it was 6.6%. The G0/G1 is 39.7% in [6] (AS101 0.1 μg/ml); 68.1% in [6] (AS101 0.5 μg/ml, 24 hours); 67.5% in data set [6] (AS101 1 μg/ml); 68% in data set [6] (NGF + anti NGF Ab + AS101). For the same compound, the G2/M was found to be 16.4% in data set [6] (AS101 0.1 μg/ml), 27.9% in [6] (AS101 0.5 μg/ml), 29% in data set [6] (AS101 1 μg/ml) and 27.6% in data set [6] (NGF + anti NGF Ab + AS101). The S in [6] (AS101 0.1 μg/ml) came to 43.9%; in data set [6] (AS101 0.5 μg/ml), 4.0%; in data set [6] (AS101 1 μg/ml) it was 3.5%; in [6] (NGF + anti NGF Ab + AS101), 4.4%. Besides, in data set [7], the differentiation result was “did not result in their differentiation”. In addition, the “activation of ras and downstream effector Erk” value in data set [8] was “activated ras and its downstream effector, Erk”. In addition, the neuronal differentiation entry in data set [9] is recorded as “induced neuronal differentiation in a dose-dependent manner”. Besides, the “optimal doses for inducing neuronal differentiation” value in [9] is 0.5 µg/mL and 1 µg/mL. Moreover, the p21waf protein expression result in data set [10] (PC12 cells, 24 h, dose-dependent) is on record as “pronounced increase”. The “reduction in body weight following injury” value in data set [11] is recorded as “attenuated”. Further, the mortality entry is on record as “no mortality” in [11] (20 μg AS101 group, two deaths in control group) and “no mortality” in [11] (30 μg AS101 group, two deaths in control group). Also, the “tolerability / adverse side effects” value in data set [11] (administration after spinal cord injury) is listed as “well tolerated”. For the same compound, the “BBB locomotor scale score (functional recovery)” value in data set [11] (high dose AS101, repeated administration, control 1±1.7) was 3±2. Also, the deaths entry in data set [11] (low dose group, two deaths in control group) was “one”. The “therapeutic effect during second and third weeks of treatment” value in data set [11] (second and third weeks) is on record as “no beneficial effect”.

Take `COc1cccc(-c2cc(=O)c3ccccc3o2)c1N` [PD98059]: the “effect of pretreatment on p21waf protein expression induced by AS101” value in [10] is on record as “abolished”.

For `COC(=O)[C@H](CCSC)NC(=O)c1ccc(NC[C@@H](N)CS)cc1-c1ccccc1` [farnesyl transferase inhibitor], in [10], the “effect of pretreatment on p21waf protein expression induced by AS101” value is reported as “abolished”.
